US8937183B2, “Detection of hydrogen peroxide” (Promega Corporation, priority 2011, dated 2015)

Experiment: Signal strength differences due to reaction pH and buffer composition (hydrogen peroxide, D-cysteine conversion, LDR)
Assay type: biochemical
Conditions: for Net Average Signals at 15 Minutes / Net Average Signals at 60 Minutes / Net Average Signals at 105 Minutes: 100 μl of 10 μM H2O2 added
Experimental: A 30 μl sample of 4 mg/ml PBI 4458 in DMSO was diluted to 1.5 ml with Nanopure water, and 50 μl added to wells A1-12 and E1-12 of a microtiter plate. A 30 μl sample of 4 mg/ml PBI 4472 in DMSO was diluted to 1.5 ml with Nanopure, and 50 μl added to wells B1-12 and F1-12 of the plate. A 30 μl sample of 4 mg/ml PBI 4480 in DMSO was diluted to 1.5 ml with Nanopure water, and 50 μl added to wells C1-12 and G1-12 of the plate. A 30 μl sample of 4 mg/ml PBI 4481 in DMSO was diluted to 1.5 ml with Nanopure water, and 50 μl added to wells D1-12 and H1-12 of the plate. To the plate, a 50 μl sample of 200 mM KHPO4, pH 7.4 was added to wells A1-D4; 50 μl 200 mM Tris buffer, pH 7.4 was added to wells A5-D8; 50 μl 250 mM HEPES buffer, pH 7.5 was added to wells A9-D12; 50 μl 200 mM KHPO4 buffer, pH 9.2 was added to wells E1-H4; 50 μl 250 mM Tris buffer, pH 10.4 was added to wells E5-H8; and 50 μl 100 mM CAPS buffer, pH 10.4 was added to wells E9-H12.
A sample of hydrogen peroxide (30%, Sigma, H1009-5 ml) was diluted to 10 μM with Nanopure water, and 100 μl added to columns 3, 4, 7, 8, 11, 12 wells A-H of the plate. 100 μl Nanopure water was added to columns 1, 2, 5, 6, 9 and 10 of the plate. The plate was incubated at room temperature for 15 minutes.
A conversion solution was made by mixing 5 ml of 1 M HEPES buffer, pH 7.5, 4.9 ml of Nanopure water and 100 μl of 100 mM D-cysteine (in Nanopure water), and […] added to all wells of a luminometer plate.
After incubation, 25 μl of sample from all wells in the plate was transferred and mixed into the corresponding wells in the luminometer plate, incubated 2-3 minutes at room temperature, and 50 μl LDR (Example 23) added. The luminometer plate was incubated for 15 minutes at room temperature, and bioluminescence detected on a GloMax® luminometer.
Additional samples were taken at 60 and 105 minutes and added to a fresh luminometer plates containing 25 μl of conversion solution in all wells. The plates were then incubated for 15 minutes at room temperature, and bioluminescence detected as previously described.

CC1(C)OB(c2ccc(COc3ccc4nc(C#N)sc4c3)cc2)OC1(C)C [PBI 4472, 6-((4-(4,4,5,5-tetramethyl-1,3,2-dioxaborolan-2-yl)benzyl)oxy)benzo-[d]thiazole-2-carbonitrile]
Signal to Background Ratios at 15 Minutes (CAPS pH 10.4, 15 minutes): 17.0
Net Average Signals at 15 Minutes (CAPS pH 10.4, 15 minutes): 3,154,440 RLU
Signal to Background Ratios at 60 Minutes (CAPS pH 10.4, 60 minutes): 15.4
Net Average Signals at 60 Minutes (CAPS pH 10.4, 60 minutes): 5,425,701 RLU
Signal to Background Ratios at 105 Minutes (CAPS pH 10.4, 105 minutes): 11.3
Net Average Signals at 105 Minutes (CAPS pH 10.4, 105 minutes): 7,554,957 RLU
Signal to Background Ratios at 15 Minutes (HEPES pH 7.5, 15 minutes): 3.9
Net Average Signals at 15 Minutes (HEPES pH 7.5, 15 minutes): 58,399 RLU
Signal to Background Ratios at 60 Minutes (HEPES pH 7.5, 60 minutes): 8.0
Net Average Signals at 60 Minutes (HEPES pH 7.5, 60 minutes): 159,982 RLU
Signal to Background Ratios at 105 Minutes (HEPES pH 7.5, 105 minutes): 8.2
Net Average Signals at 105 Minutes (HEPES pH 7.5, 105 minutes): 259,725 RLU
Net Average Signals at 15 Minutes (KPO4 Ph 7.4, 15 minutes): 43,867 RLU
Signal to Background Ratios at 15 Minutes (KPO4 pH 7.4, 15 minutes): 3.1
Signal to Background Ratios at 60 Minutes (KPO4 pH 7.4, 60 minutes): 4.9
Net Average Signals at 60 Minutes (KPO4 pH 7.4, 60 minutes): 102,614 RLU
Signal to Background Ratios at 105 Minutes (KPO4 pH 7.4, 105 minutes): 5.3
Net Average Signals at 105 Minutes (KPO4 pH 7.4, 105 minutes): 168,787 RLU
Signal to Background Ratios at 15 Minutes (KPO4 pH 9.2, 15 minutes): 11.0
Net Average Signals at 15 Minutes (KPO4 pH 9.2, 15 minutes): 400,087 RLU
Signal to Background Ratios at 60 Minutes (KPO4 pH 9.2, 60 minutes): 14.7
Net Average Signals at 60 Minutes (KPO4 pH 9.2, 60 minutes): 781,296 RLU
Signal to Background Ratios at 105 Minutes (KPO4 pH 9.2, 105 minutes): 14.6
Net Average Signals at 105 Minutes (KPO4 pH 9.2, 105 minutes): 1,380,626 RLU
Signal to Background Ratios at 15 Minutes (TRIS pH 10.4, 15 minutes): 32.9
Net Average Signals at 15 Minutes (TRIS pH 10.4, 15 minutes): 1,530,303 RLU
Signal to Background Ratios at 60 Minutes (TRIS pH 10.4, 60 minutes): 34.2
Net Average Signals at 60 Minutes (TRIS pH 10.4, 60 minutes): 3,777,236 RLU
Signal to Background Ratios at 105 Minutes (TRIS pH 10.4, 105 minutes): 26.5
Net Average Signals at 105 Minutes (TRIS pH 10.4, 105 minutes): 6,279,007 RLU
Signal to Background Ratios at 15 Minutes (Tris pH 7.4, 15 minutes): 6.6
Net Average Signals at 15 Minutes (Tris pH 7.4, 15 minutes): 121,480 RLU
Signal to Background Ratios at 60 Minutes (Tris pH 7.4, 60 minutes): 13.2
Net Average Signals at 60 Minutes (Tris pH 7.4, 60 minutes): 371,397 RLU
Signal to Background Ratios at 105 Minutes (Tris pH 7.4, 105 minutes): 13.6
Net Average Signals at 105 Minutes (Tris pH 7.4, 105 minutes): 658,967 RLU
